Results: patent US9422338B2 (EpoDose LLC, priority 2011, dated 2016)

Target: T1, EPOR (erythropoietin receptor), human recombinant, NSO cells (Homo sapiens, UniProt P19235)
T1 construct: host or cells: NSO cells
T1 sequence (P19235 25-250 limits assumed): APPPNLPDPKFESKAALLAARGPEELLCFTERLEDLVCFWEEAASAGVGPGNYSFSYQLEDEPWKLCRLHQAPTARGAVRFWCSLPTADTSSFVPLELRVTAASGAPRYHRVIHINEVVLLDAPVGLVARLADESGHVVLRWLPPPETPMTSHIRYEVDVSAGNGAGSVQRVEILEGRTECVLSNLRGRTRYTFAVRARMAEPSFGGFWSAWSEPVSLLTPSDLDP
Experiment: EPOR radioligand binding assay ([125I] Erythropoietin competition)
Protocol: IC50 values were determined by a non-linear, least squares regression analysis using MATHIQ™ (computer software for integrating mathematical functions into new or existing software). […] Where presented, the Hill coefficient (nH), defining the slope of the competitive binding curve, was calculated using MATHIQ™.

[1] = Example 1, mimetics varied in N-end, loop and mid sequences
[2] = Example 2, mimetics varied in loop, mid and C-end

Compound `CSCC[C@@H]1NC(=O)[C@H](CCCNC(=N)N)NC(=O)C(NC(=O)[C@H](CC(C)C)NC(=O)[C@H](Cc2ccc(O)cc2)NC(=O)[C@H](CC(N)=O)NC(C)=O)CCOCC(C(=O)N[C@@H](CCCNC(=N)N)C(=O)N2CCC[C@H]2C(=O)NCCCCC(=O)NCCCCC(NC(=O)[C@@H]2CCCN2C(=O)[C@H](CCCNC(=N)N)NC(=O)C2COCCC(NC(=O)[C@H](CC(C)C)NC(=O)[C@H](Cc3ccc(O)cc3)NC(=O)[C@H](CC(N)=O)NC(C)=O)C(=O)N[C@@H](CCCNC(=N)N)C(=O)N[C@@H](CCSC)C(=O)NCC(=O)N[C@@H](Cc3c[nH]c4ccccc34)C(=O)N[C@@H](C(C)C)C(=O)N2)C(N)=O)NC(=O)[C@H](C(C)C)NC(=O)[C@H](Cc2c[nH]c3ccccc23)NC(=O)CNC1=O` (stereo partly shown) [AC-0005-020] has a Ki [1] of 44 nM and an IC50 (Example 4, fourth table) of 93 nM.

`CSCC[C@@H]1NC(=O)[C@H](CCCNC(=N)N)NC(=O)C(NC(=O)[C@H](CC(C)C)NC(=O)[C@H](Cc2ccc(O)cc2)NC(=O)[C@H](CC(N)=O)NC(C)=O)CCOCC(C(=O)N[C@@H](CCCCNC(=N)N)C(=O)N2CCC[C@H]2C(=O)NCCCCC(=O)NCCCCC(NC(=O)[C@@H]2CCCN2C(=O)[C@H](CCCCNC(=N)N)NC(=O)C2COCCC(NC(=O)[C@H](CC(C)C)NC(=O)[C@H](Cc3ccc(O)cc3)NC(=O)[C@H](CC(N)=O)NC(C)=O)C(=O)N[C@@H](CCCNC(=N)N)C(=O)N[C@@H](CCSC)C(=O)NCC(=O)N[C@@H](Cc3c[nH]c4ccccc34)C(=O)N[C@@H](C(C)C)C(=O)N2)C(N)=O)NC(=O)[C@H](C(C)C)NC(=O)[C@H](Cc2c[nH]c3ccccc23)NC(=O)CNC1=O` (stereo partly shown) [AC-0005-021] gave a Ki [1] of 12 nM and an IC50 (Example 4, fourth table) of 25 nM.

Work on `CSCC[C@@H]1NC(=O)[C@H](CCCNC(=N)N)NC(=O)C(NC(=O)[C@H](CC(C)C)NC(=O)[C@H](Cc2ccc(O)cc2)NC(=O)[C@H](CC(N)=O)NC(C)=O)CCOCC(C(=O)N[C@@H](CCCCN)C(=O)N2CCC[C@H]2C(=O)NCCCCC(=O)NCCCCC(NC(=O)[C@@H]2CCCN2C(=O)[C@H](CCCCN)NC(=O)C2COCCC(NC(=O)[C@H](CC(C)C)NC(=O)[C@H](Cc3ccc(O)cc3)NC(=O)[C@H](CC(N)=O)NC(C)=O)C(=O)N[C@@H](CCCNC(=N)N)C(=O)N[C@@H](CCSC)C(=O)N[C@@H](Cc3ccccc3)C(=O)N[C@@H](Cc3c[nH]c4ccccc34)C(=O)N[C@@H](C(C)C)C(=O)N2)C(N)=O)NC(=O)[C@H](C(C)C)NC(=O)[C@H](Cc2c[nH]c3ccccc23)NC(=O)[C@H](Cc2ccccc2)NC1=O` (stereo partly shown) [AC-0005-022] yielded a Ki [1] of 17 nM and an IC50 (Example 4, fourth table) of 36 nM.

`CSCC[C@@H]1NC(=O)[C@H](CCCNC(=N)N)NC(=O)C(NC(=O)[C@H](CC(C)C)NC(=O)[C@H](Cc2ccc(O)cc2)NC(=O)[C@H](CC(N)=O)NC(C)=O)CCOCC(C(=O)N[C@@H](CCCCN)C(=O)N2CCC[C@H]2C(=O)NCCCCC(=O)NCCCCC(NC(=O)[C@@H]2CCCN2C(=O)[C@H](CCCCN)NC(=O)C2COCCC(NC(=O)[C@H](CC(C)C)NC(=O)[C@H](Cc3ccc(O)cc3)NC(=O)[C@H](CC(N)=O)NC(C)=O)C(=O)N[C@@H](CCCNC(=N)N)C(=O)N[C@@H](CCSC)C(=O)N[C@@H](CCc3ccccc3)C(=O)N[C@@H](Cc3c[nH]c4ccccc34)C(=O)N[C@@H](C(C)C)C(=O)N2)C(N)=O)NC(=O)[C@H](C(C)C)NC(=O)[C@H](Cc2c[nH]c3ccccc23)NC(=O)[C@H](CCc2ccccc2)NC1=O` (stereo partly shown) [AC-0005-023] was tested, and the Ki [1] was 17 nM and the IC50 (Example 4, fourth table) was 35 nM.

With `CSCC[C@@H]1NC(=O)[C@H](CCCNC(=N)N)NC(=O)C(NC(=O)[C@H](CC(C)C)NC(=O)[C@H](Cc2ccc(O)cc2)NC(=O)[C@H](CC(N)=O)NC(C)=O)CCOCC(C(=O)N[C@@H](CCCCN)C(=O)N2CCC[C@H]2C(=O)NCCCCC(=O)NCCCCC(NC(=O)[C@@H]2CCCN2C(=O)[C@H](CCCCN)NC(=O)C2COCCC(NC(=O)[C@H](CC(C)C)NC(=O)[C@H](Cc3ccc(O)cc3)NC(=O)[C@H](CC(N)=O)NC(C)=O)C(=O)N[C@@H](CCCNC(=N)N)C(=O)N[C@@H](CCSC)C(=O)N[C@@H](CC(C)C)C(=O)N[C@@H](Cc3c[nH]c4ccccc34)C(=O)N[C@@H](C(C)C)C(=O)N2)C(N)=O)NC(=O)[C@H](C(C)C)NC(=O)[C@H](Cc2c[nH]c3ccccc23)NC(=O)[C@H](CC(C)C)NC1=O` (stereo partly shown) [AC-0005-024] the Ki [1] was 34 nM and the IC50 (Example 4, fourth table) was 72 nM.

Compound `CSCC[C@@H]1NC(=O)[C@H](CCCNC(=N)N)NC(=O)C(NC(=O)[C@H](CC(C)C)NC(=O)[C@H](Cc2ccc(O)cc2)NC(=O)[C@H](CC(N)=O)NC(C)=O)CCOCC(C(=O)N[C@@H](CCCCN)C(=O)N2CCC[C@H]2C(=O)NCCCCC(=O)NCCCCC(NC(=O)[C@@H]2CCCN2C(=O)[C@H](CCCCN)NC(=O)C2COCCC(NC(=O)[C@H](CC(C)C)NC(=O)[C@H](Cc3ccc(O)cc3)NC(=O)[C@H](CC(N)=O)NC(C)=O)C(=O)N[C@@H](CCCNC(=N)N)C(=O)N[C@@H](CCSC)C(=O)N3CCC[C@H]3C(=O)N[C@@H](Cc3c[nH]c4ccccc34)C(=O)N[C@@H](C(C)C)C(=O)N2)C(N)=O)NC(=O)[C@H](C(C)C)NC(=O)[C@H](Cc2c[nH]c3ccccc23)NC(=O)[C@@H]2CCCN2C1=O` (stereo partly shown) [AC-0005-026] has a Ki [1] of 5.9 nM, a Ki [2] of 4.3 nM and an IC50 (Example 3) of 13.5 nM. The Ki (Example 3, Cheng-Prusoff) was 6.39 nM, the IC50 (Example 4, fifth table) was 12.4 nM and the IC50 (Example 4, fourth table) was 20 nM. For the same compound, the IC50 (Example 4, sixth table) was 9 nM and the Ki (Example 4, sixth table) was 4.3 nM.

Work on `CSCC[C@@H]1NC(=O)[C@H](CCCNC(=N)N)NC(=O)C(NC(=O)[C@H](CC(C)C)NC(=O)[C@H](Cc2ccc(O)cc2)NC(=O)[C@H](CC(N)=O)NC(C)=O)CCOCC(C(=O)N[C@@H](CCCCNC(=N)N)C(=O)N2CCC[C@H]2C(=O)NCCCCC(=O)NCCCCC(NC(=O)[C@@H]2CCCN2C(=O)[C@H](CCCCNC(=N)N)NC(=O)C2COCCC(NC(=O)[C@H](CC(C)C)NC(=O)[C@H](Cc3ccc(O)cc3)NC(=O)[C@H](CC(N)=O)NC(C)=O)C(=O)N[C@@H](CCCNC(=N)N)C(=O)N[C@@H](CCSC)C(=O)N3CCC[C@H]3C(=O)N[C@@H](Cc3c[nH]c4ccccc34)C(=O)N[C@@H](C(C)C)C(=O)N2)C(N)=O)NC(=O)[C@H](C(C)C)NC(=O)[C@H](Cc2c[nH]c3ccccc23)NC(=O)[C@@H]2CCCN2C1=O` (stereo partly shown) [AC-0005-051] yielded a Ki [1] of 4.6 nM, an IC50 (Example 3) of 10.1 nM and a Ki (Example 3, Cheng-Prusoff) of 4.8 nM. For the same compound, the IC50 (Example 4, fifth table) was 9.6 nM.

For `CSCC[C@@H]1NC(=O)[C@H](CCCNC(=N)N)NC(=O)C(NC(=O)[C@H](CC(C)C)NC(=O)[C@H](Cc2ccc(O)cc2)NC(C)=O)CCOCC(C(=O)N[C@@H](CCCCNC(=N)N)C(=O)N2CCC[C@H]2C(=O)NCCCCC(=O)NCCCCC(NC(=O)[C@@H]2CCCN2C(=O)[C@H](CCCCNC(=N)N)NC(=O)C2COCCC(NC(=O)[C@H](CC(C)C)NC(=O)[C@H](Cc3ccc(O)cc3)NC(C)=O)C(=O)N[C@@H](CCCNC(=N)N)C(=O)N[C@@H](CCSC)C(=O)N3CCC[C@H]3C(=O)N[C@@H](Cc3c[nH]c4ccccc34)C(=O)N[C@@H](C(C)C)C(=O)N2)C(N)=O)NC(=O)[C@H](C(C)C)NC(=O)[C@H](Cc2c[nH]c3ccccc23)NC(=O)[C@@H]2CCCN2C1=O` (stereo partly shown) [AC-0005-052], the Ki [1] was 11.4 nM, the IC50 (Example 3) was 24.4 nM and the Ki (Example 3, Cheng-Prusoff) was 11.6 nM. The IC50 (Example 4, fifth table) was 24 nM.

In the case of `CSCC[C@@H]1NC(=O)[C@H](CCCNC(=N)N)NC(=O)C(NC(=O)[C@H](CC(C)C)NCOCCCO)CCOCC(C(=O)N[C@@H](CCCCNC(=N)N)C(=O)N2CCC[C@H]2C(=O)NCCCCC(=O)NCCCCC(NC(=O)[C@@H]2CCCN2C(=O)[C@H](CCCCNC(=N)N)NC(=O)C2COCCC(NC(=O)[C@H](CC(C)C)NCOCCCO)C(=O)N[C@@H](CCCNC(=N)N)C(=O)N[C@@H](CCSC)C(=O)N3CCC[C@H]3C(=O)N[C@@H](Cc3c[nH]c4ccccc34)C(=O)N[C@@H](C(C)C)C(=O)N2)C(N)=O)NC(=O)[C@H](C(C)C)NC(=O)[C@H](Cc2c[nH]c3ccccc23)NC(=O)[C@@H]2CCCN2C1=O` (stereo partly shown) [AC-0005-053], the “NH (Hill coefficient)” value (Example 3, slope of competitive binding curve) is reported as 1.86, the “Ki (AC-0005-002)/Ki” value (Example 4, fifth table, Ki relative to that of AC-0005-002) is reported as 403 and the “Ki/Ki(EPO)” value (Example 4, fifth table, Ki relative to that of EPO) is reported as 120.

With `CSCC[C@@H]1NC(=O)[C@H](Cc2c[nH]cn2)NC(=O)C(NC(=O)[C@H](CC(C)C)NC(=O)[C@H](Cc2ccc(O)cc2)NC(=O)[C@H](CC(N)=O)NC(C)=O)CCOCC(C(=O)N[C@@H](CCCCNC(=N)N)C(=O)N2CCC[C@H]2C(=O)NCCCCC(=O)NCCCCC(NC(=O)[C@@H]2CCCN2C(=O)[C@H](CCCCNC(=N)N)NC(=O)C2COCCC(NC(=O)[C@H](CC(C)C)NC(=O)[C@H](Cc3ccc(O)cc3)NC(=O)[C@H](CC(N)=O)NC(C)=O)C(=O)N[C@@H](Cc3c[nH]cn3)C(=O)N[C@@H](CCSC)C(=O)N3CCC[C@H]3C(=O)N[C@@H](Cc3c[nH]c4ccccc34)C(=O)N[C@@H](C(C)C)C(=O)N2)C(N)=O)NC(=O)[C@H](C(C)C)NC(=O)[C@H](Cc2c[nH]c3ccccc23)NC(=O)[C@@H]2CCCN2C1=O` (stereo partly shown) [AC-0005-054] the Ki [1] was 15.5 nM, the IC50 (Example 3) was 65.1 nM and the Ki (Example 3, Cheng-Prusoff) was 30.9 nM. It also gave an IC50 (Example 4, fifth table) of 33 nM.

`CSCC[C@@H]1NC(=O)[C@H](CCCNC(=N)N)NC(=O)C(NC(=O)[C@H](CC(C)C)NC(=O)[C@H](Cc2ccc(O)cc2)NC(=O)[C@H](CC(N)=O)NC(C)=O)CCOCC(C(=O)N[C@@H](CCCCNC(=N)N)C(=O)N2CCC[C@H]2C(=O)NCCCCC(=O)NCCCCC(NC(=O)[C@@H]2CCCN2C(=O)[C@H](CCCCNC(=N)N)NC(=O)C2COCCC(NC(=O)[C@H](CC(C)C)NC(=O)[C@H](Cc3ccc(O)cc3)NC(=O)[C@H](CC(N)=O)NC(C)=O)C(=O)N[C@@H](CCCNC(=N)N)C(=O)N[C@@H](CCSC)C(=O)N3CCC[C@H]3C(=O)N[C@@H](Cc3ccc4ccccc4c3)C(=O)N[C@@H](C(C)C)C(=O)N2)C(N)=O)NC(=O)[C@H](C(C)C)NC(=O)[C@H](Cc2ccc3ccccc3c2)NC(=O)[C@@H]2CCCN2C1=O` (stereo partly shown) [AC-0005-055] was tested, and the Ki [1] was 4.8 nM, the Ki [2] was 6 nM and the IC50 (Example 3) was 11 nM. The Ki (Example 3, Cheng-Prusoff) was 5.23 nM, the IC50 (Example 4, fifth table) was 10.2 nM and the IC50 (Example 4, sixth table) was 12.6 nM. It also gave a Ki (Example 4, sixth table) of 6 nM.
